LC retention time data for 93 compounds are collected here from the RepoRT retention time repository (doi:10.1007/s11356-017-9929-x).

The data set in a line: RP, GL Sciences Inertsil ODS-4, 150 × 2.1 mm, 3 µm, 40 °C, 0.3 mL/min, estimated dead time 1.1 min; A: water + 5 mM ammonium acetate; B: methanol + 5 mM ammonium acetate; gradient (min/%B) 0/5 30/95 50/95. As to conditions: stereoisomer not certain.
For `COC=C(C(=O)OC)c1ccccc1Oc1cc(Oc2ccccc2C#N)ncn1`, the LC retention time is 26.1 min.

For the compound `OC(CCCN1CCCCC1)(c1ccccc1)c1ccccc1`, the LC retention time is 23.2 min.

In the case of `CON=C(C)c1cccc(Oc2nc(OC)cc(OC)n2)c1C(=O)OC`, the LC retention time is 26.5 min.

Turning to `CC(=O)CC(c1ccccc1)c1c(O)c2ccccc2oc1=O` (stereo not drawn), the LC retention time is 19.1 min.

With `CCC1OC(=O)C(C)C(OC2CC(C)(OC)C(O)C(C)O2)C(C)C(OC2OC(C)CC(N(C)C)C2O)C(C)(O)CC(C)C(=O)C(C)C(O)C1(C)O` (stereo not drawn), the LC retention time is 25.5 min.

In the case of `COC(=O)c1ccccc1S(=O)(=O)NC(=O)N(C)c1nc(C)nc(OC)n1`, the LC retention time is 16.9 min.

With `CCOc1ccc(NC(C)=O)cc1`, the LC retention time was 18.5 min.

For `CC(C)(C)NCC(O)c1cc(O)cc(O)c1` (stereo not drawn), the LC retention time was 8.97 min.

Regarding `CC1=CC(O)CC(=O)Cc2nc(co2)C(=O)N2CCC=C2C(=O)OC(C(C)C)C(C)C=CC(=O)NCC=C1` (stereo not drawn), the LC retention time is 24.4 min.

Consider `CN(C)C(=O)Nc1cc(C(C)(C)C)on1`, for which the LC retention time was 21.6 min.

Regarding `CC(=O)CCCCn1c(=O)c2c(ncn2C)n(C)c1=O`, the LC retention time was 17.4 min.

Turning to `CN=C(NC#N)NCCSCc1nc[nH]c1C`, the LC retention time is 13.3 min.

Consider `COC(=O)c1ccc(CNS(C)(=O)=O)cc1S(=O)(=O)NC(=O)Nc1nc(OC)cc(OC)n1`, for which the LC retention time is 17.4 min.

With `CCC1CCCC(OC2CCC(N(C)C)C(C)O2)C(C)C(=O)C2=CC3C(C=C(C)C4CC(OC5OC(C)C(OC)C(OC)C5OC)CC43)C2CC(=O)O1` (stereo not drawn), the LC retention time is 34.9 min.

Turning to `CNC(=O)C(=NOC)c1ccccc1Oc1ccccc1`, the LC retention time is 24.6 min.

As for `CCC1CCCC(OC2CCC(N(C)C)C(C)O2)C(C)C(=O)C2=CC3C(C=CC4CC(OC5OC(C)C(OC)C(OC)C5OC)CC43)C2CC(=O)O1` (stereo not drawn), the LC retention time is 34.5 min.

In the case of `COC(=O)c1sccc1S(=O)(=O)NC(=O)Nc1nc(C)nc(OC)n1`, the LC retention time is 13.9 min.

As for `COc1ccc(CCN(C)CCCC(C#N)(c2ccc(OC)c(OC)c2)C(C)C)cc1OC` (stereo not drawn), the LC retention time was 26.7 min.

Regarding `Cc1cc(=O)n(-c2ccccc2)n1C`, the LC retention time was 15.4 min.

As for `CNC(=O)N(C)c1nc2ccccc2s1`, the LC retention time was 23.8 min.

As to `Cc1cc(C2CC2)nc(Nc2ccccc2)n1`, the LC retention time was 29.8 min.

Take `CCOC(=O)NCCOc1ccc(Oc2ccccc2)cc1`: the LC retention time is 28.8 min.

With `COCCc1ccc(OCC(O)CNC(C)C)cc1` (stereo not drawn), the LC retention time was 17.8 min.

Take `CC#Cc1cc(C)nc(Nc2ccccc2)n1`: the LC retention time is 28.1 min.

Regarding `CCS(=O)(=O)c1nc2ccccn2c1S(=O)(=O)NC(=O)Nc1nc(OC)cc(OC)n1`, the LC retention time was 16.3 min.

As for `CC(C)(C)NCC(O)c1ccc(O)c(CO)c1` (stereo not drawn), the LC retention time is 9.3 min.

As to `[2H]C([2H])([2H])OP(N)(=O)SC([2H])([2H])[2H]` (stereo not drawn), the LC retention time was 4.22 min.

Regarding `CC(C(O)c1ccc(O)cc1)N1CCC(Cc2ccccc2)CC1` (stereo not drawn), the LC retention time was 21 min.

For `CCCCNC(=O)NS(=O)(=O)c1ccc(C)cc1`, the LC retention time was 19.6 min.

With `COP(=S)(OC)Oc1ccc(S(C)=O)c(C)c1` (stereo not drawn), the LC retention time is 22.2 min.

With `COC(=O)c1ccccc1CS(=O)(=O)NC(=O)Nc1nc(OC)cc(OC)n1`, the LC retention time is 22.1 min.

For the compound `CCNc1nc(NC(C)C)nc(SC)n1`, the LC retention time was 25.9 min.

For `CC1CCCCC1NC(=O)Nc1ccccc1` (stereo not drawn), the LC retention time is 25.6 min.

Regarding `CC12C=CC(=O)C=C1CCC1C2C(O)CC2(C)C1CCC2(O)C(=O)CO` (stereo not drawn), the LC retention time is 22.2 min.

Regarding `CSc1nnc(C(C)(C)C)c(=O)n1N`, the LC retention time is 20.6 min.

As to `CC(C)C1(C)N=C(c2nc3ccccc3cc2C(=O)O)NC1=O` (stereo not drawn), the LC retention time was 14.7 min.

As for `COc1cc(OC)nc(NC(=O)NS(=O)(=O)c2cc(NC=O)ccc2C(=O)N(C)C)n1`, the LC retention time was 15.9 min.

Consider `OCCN(CCO)c1nc(N2CCCCC2)c2nc(N(CCO)CCO)nc(N3CCCCC3)c2n1`, for which the LC retention time is 28.4 min.

For `[2H]C([2H])([2H])NC(=O)Oc1cccc2c1OC(C)(C)C2`, the LC retention time was 20.5 min.

As to `Cc1nn(C)c(Oc2ccccc2)c1C=NOCc1ccc(C(=O)OC(C)(C)C)cc1`, the LC retention time is 33.5 min.

With `CN(C)CCCN1c2ccccc2CCc2ccccc21`, the LC retention time was 26 min.

For `Cc1ccc(NC(=O)NC(C)(C)c2ccccc2)cc1`, the LC retention time was 26.7 min.

As for `CN1CCN(CC(=O)N2c3ccccc3C(=O)Nc3cccnc32)CC1`, the LC retention time is 15.8 min.

With `CC(C)NCC(O)COc1cccc2[nH]c3ccccc3c12` (stereo not drawn), the LC retention time is 20 min.

Turning to `CCCCOC(=O)N(C)SN(C)C(=O)Oc1cccc2c1OC(C)(C)C2`, the LC retention time was 31.5 min.

On to `[2H]c1c([2H])c(S(=O)(=O)Nc2cc(C)on2)c([2H])c([2H])c1N`, for which the LC retention time is 9.83 min.

Consider `COc1ccc2c(c1)C13CCCCC1C(C2)N(C)CC3` (stereo not drawn), for which the LC retention time is 24.2 min.

Turning to `CNC(=C[N+](=O)[O-])NCCSCc1ccc(CN(C)C)o1`, the LC retention time is 12.5 min.

For `CSC1=NC(C)(c2ccccc2)C(=O)N1Nc1ccccc1` (stereo not drawn), the LC retention time is 26.3 min.

For `CCCC(=NOCC)C1=C(O)CC(CC(C)SCC)CC1=O` (stereo not drawn), the LC retention time is 25.6 min.

With `CC1=NNC(=O)N(N=Cc2cccnc2)C1`, the LC retention time is 13 min.

With `CCC1OC(=O)C(C)C(OC2CC(C)(OC)C(O)C(C)O2)C(C)C(OC2OC(C)CC(N(C)C)C2O)C(C)(OC)CC(C)C(=O)C(C)C(O)C1(C)O` (stereo not drawn), the LC retention time was 27.2 min.

Take `Cc1nnc(NS(=O)(=O)c2ccc(N)cc2)s1`: the LC retention time is 9.03 min.

`[2H]c1c([2H])c([2H])c2[nH]c(NC(=O)OC)nc2c1[2H]`: the LC retention time was 17.1 min.

`CNC(=O)N(C)c1nnc(C(C)(C)C)s1`: the LC retention time was 21.7 min.

Regarding `Nc1ccc(S(=O)(=O)Nc2nccs2)cc1`, the LC retention time was 10.6 min.

On to `COc1cc(OC)nc(NC(=O)NS(=O)(=O)Nc2ccccc2C(=O)C2CC2)n1`, for which the LC retention time was 23.6 min.

On to `Cc1cccc2sc3nncn3c12`, for which the LC retention time is 18.9 min.

As for `CC(C)NCC(O)COc1ccc(CCOCC2CC2)cc1` (stereo not drawn), the LC retention time was 21.6 min.

As for `Cc1nc(N(C)C)nc(OC(=O)N(C)C)c1C`, the LC retention time was 23.4 min.

With `CC(Oc1ccc2ccccc2c1)C(=O)Nc1ccccc1` (stereo not drawn), the LC retention time is 28.8 min.

Consider `CC12CCC(=O)C=C1CCC1C2CCC2(C)C(O)CCC12` (stereo not drawn), for which the LC retention time was 26.6 min.

`COc1cc(NS(=O)(=O)c2ccc(N)cc2)nc(OC)n1`: the LC retention time was 15.5 min.

For the compound `COC(=O)c1ccccc1S(=O)(=O)NC(=O)Nc1nc(C)nc(OC)n1`, the LC retention time is 13.9 min.

For `CC(C)NCC(O)COc1cccc2ccccc12` (stereo not drawn), the LC retention time was 21.8 min.

Turning to `COc1cc(C)nc(-n2nc(C)cc2OC)n1`, the LC retention time is 21.3 min.

Take `[2H]C([2H])([2H])NC(=O)ON=C(C)SC`: the LC retention time is 11.9 min.

`[2H]C([2H])([2H])Oc1cc(NS(=O)(=O)c2ccc(N)cc2)nc(OC([2H])([2H])[2H])n1`: the LC retention time is 15.1 min.

Consider `Nc1ccc(S(=O)(=O)Nc2ncccn2)cc1`, for which the LC retention time was 8.05 min.

As for `NC(=O)N1c2ccccc2C=Cc2ccccc21`, the LC retention time was 21.9 min.

With `CCOC(=O)CCN(SN(C)C(=O)Oc1cccc2c1OC(C)(C)C2)C(C)C`, the LC retention time is 31.1 min.

On to `COc1cc(C)c(Cc2cnc(N)nc2N)cc1OC`, for which the LC retention time is 17.6 min.

With `CCCCc1c(C)nc(N(C)C)[nH]c1=O`, the LC retention time was 23.4 min.

With `CN1C2CC(OC(=O)C(CO)c3ccccc3)CC1C1OC12` (stereo not drawn), the LC retention time is 16.4 min.

With `COP(=O)(OC)Oc1ccc(S(C)=O)c(C)c1` (stereo not drawn), the LC retention time was 16.9 min.

For the compound `[2H]C([2H])([2H])N=C(NC#N)NCCSCc1nc[nH]c1C`, the LC retention time is 13.3 min.

On to `COC(=O)NN=Cc1c[n+]([O-])c2ccccc2[n+]1[O-]`, for which the LC retention time is 15 min.

Regarding `Cc1ccnc(NS(=O)(=O)c2ccc(N)cc2)n1`, the LC retention time is 11.6 min.

`COCCOc1ccccc1S(=O)(=O)NC(=O)Nc1nc(OC)nc(OC)n1`: the LC retention time is 15.5 min.

On to `C#CC1(OC(C)=O)CCC2C3CCC4=CC(=NO)CCC4C3CCC21CC` (stereo not drawn), for which the LC retention time was 30.3 min.

As to `COc1cc(NS(=O)(=O)c2ccc(N)cc2)ncn1`, the LC retention time was 11.8 min.

As for `CC(C)NCC(O)c1ccc(NS(C)(=O)=O)cc1` (stereo not drawn), the LC retention time is 9.08 min.

As for `Cc1cc(C)cc(C(=O)N(NC(=O)c2ccc3c(c2C)CCCO3)C(C)(C)C)c1`, the LC retention time was 27.9 min.

As to `Cc1ccc(C(=O)C(C)CN2CCCCC2)cc1` (stereo not drawn), the LC retention time is 23.4 min.

Consider `COc1cc(OC)nc(NC(=O)NS(=O)(=O)c2c(-c3nnn(C)n3)cnn2C)n1`, for which the LC retention time was 14.7 min.

Turning to `CC(C)NCC(O)COc1ccc(COCCOC(C)C)cc1` (stereo not drawn), the LC retention time was 20 min.

As to `Oc1ccc2nc(-c3cscn3)[nH]c2c1`, the LC retention time was 16.1 min.

Regarding `NC1=NCC2c3ccccc3Cc3ccccc3N12` (stereo not drawn), the LC retention time was 20.1 min.

Take `CCOc1nc(NC)nc(NC(=O)NS(=O)(=O)c2ccccc2C(=O)OC)n1`: the LC retention time is 17.7 min.

As for `CNC(=O)Oc1cccc2c1OC(C)(C)C2`, the LC retention time is 21.4 min.

With `CSc1nc(NC(C)C)nc(NC(C)C)n1`, the LC retention time was 27.6 min.

In the case of `CCOC(=O)c1cnn(C)c1S(=O)(=O)NC(=O)Nc1nc(OC)cc(OC)n1`, the LC retention time was 18.2 min.

With `CCC(C)c1ccccc1OC(=O)NC` (stereo not drawn), the LC retention time is 25.2 min.
